These results are taken from US5221752A, “α-keto amide derivatives” (Nippon Kayaku Kabushiki Kaisha, priority 1990, dated 1993).

*1 amine or outer side, *2 acyl side, *3 side chain or, on linkers, in order; H or OH if unused. Where a SMILES comes first, the peptide text is derived from it. [ ]: non-standard residue; d: D form. The star is where a group is joined. ξ: configuration not given here. X1 = O=C(C(=O)[*:2])C1CCCN1[*:1]; Cbz = O=C(OCc1ccccc1)*; ξV = CC(C)C(N)C(=O)O; OBn = c1ccc(CO*)cc1

In one test the target is T1, prolyl endopeptidase (Sus scrofa, UniProt P23687).
T1 construct: prolyl endopeptidase obtained from porcine kidneys used as the enzyme; from tissue; host or cells: porcine kidneys
T1 sequence (P23687 whole entry): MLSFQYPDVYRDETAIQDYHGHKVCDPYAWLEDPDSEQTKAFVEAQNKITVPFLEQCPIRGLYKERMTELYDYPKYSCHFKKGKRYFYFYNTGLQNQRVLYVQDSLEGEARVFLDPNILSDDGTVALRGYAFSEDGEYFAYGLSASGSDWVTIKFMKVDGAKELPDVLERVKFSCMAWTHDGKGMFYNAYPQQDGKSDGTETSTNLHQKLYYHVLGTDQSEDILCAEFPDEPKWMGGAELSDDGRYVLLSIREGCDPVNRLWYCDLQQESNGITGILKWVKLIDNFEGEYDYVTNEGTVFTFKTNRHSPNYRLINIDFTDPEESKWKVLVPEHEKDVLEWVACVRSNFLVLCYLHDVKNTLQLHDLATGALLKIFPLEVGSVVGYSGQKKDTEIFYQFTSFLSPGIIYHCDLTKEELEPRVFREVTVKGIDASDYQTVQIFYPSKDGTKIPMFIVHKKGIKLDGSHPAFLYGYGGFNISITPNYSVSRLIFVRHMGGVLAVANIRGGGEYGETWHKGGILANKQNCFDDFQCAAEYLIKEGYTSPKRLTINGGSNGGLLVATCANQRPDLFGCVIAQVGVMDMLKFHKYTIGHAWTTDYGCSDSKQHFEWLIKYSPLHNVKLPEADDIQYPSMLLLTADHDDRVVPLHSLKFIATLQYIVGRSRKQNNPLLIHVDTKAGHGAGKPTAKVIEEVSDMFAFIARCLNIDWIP
Nature of the test: Enzyme inhibiting activity (prolyl endopeptidase; substrate benzyloxycarbonylglycylproline β-naphthylamide). It counts as biochemical, porcine.
Details: not given
On the procedure:
Experiments were conducted to evaluate the enzyme inhibiting activity of the compounds of the present invention by using prolyl endopeptidase as the enzyme model. They are given in the following Test Examples.
Method of Assaying Enzyme Inhibiting Activity
Benzyloxycarbonylglycylproline β-naphthylamide (0.1 mM) used as the substrate was reacted with prolyl endopeptidase obtained from porcine kidneys used as the enzyme in a 0.025 M tris(hydroxymethyl)methanamine hydrochloric acid solution (pH: 7.5) at 37° C. reaction mixture for 30 min and then the absorbance of the product at 525 nm was measured.
In turn, `CC(C)C[C@@H](NC(=O)C(=O)C1CCCN1C(=O)C(Cc1ccccc1)NC(=O)OCc1ccccc1)C(=O)NC(C)(C)C` (stereo partly drawn) [Example 19, N-Benzyloxycarbonylphenylalanyl-[2-oxo-2-(pyrrolidin-2-yl)acetyl]-D-leucinet-butylamide] gave an IC50 of 2.36 nM.
As to `CC(C)CC(NC(=O)C(=O)C1CCCN1C(=O)C(Cc1ccccc1)NC(=O)OCc1ccccc1)C(=O)OC(C)(C)C` (stereo not drawn) [Example 23, N-benzyloxycarbonylphenylalanyl-[2-oxo-2-(pyrrolidin-2-yl)acetyl]-leucine t-butyl ester], the IC50 is 3.03 nM.
`CC(C)(C)OC(=O)CNC(=O)C(=O)C1CCCN1C(=O)C(Cc1ccccc1)NC(=O)OCc1ccccc1` (stereo not drawn) [Example 21, N-Benzyloxycarbonylphenylalanyl-[2-oxo-2-(pyrrolidin-2-yl)acetyl]-glycine t-butyl ester]: the IC50 was 1.49 nM.
The compound `O=C(O)CNC(=O)C(=O)C1CCCN1C(=O)C(Cc1ccccc1)NC(=O)OCc1ccccc1` (stereo not drawn) [Example 22, N-Benzyloxycarbonylphenylalanyl-[2-oxo-2-(pyrrolidin-2-yl)acetyl]-glycine] had an IC50 of 2.28 nM.
The same measure, in the same setting: for `CC(C)C[C@@H](NC(=O)C(=O)C1CCCN1C(=O)OCc1ccccc1)C(=O)OC(C)(C)C` (stereo partly drawn) [Example 15, [2-Oxo-2-(N-benzyloxycarbonylpyrrolidin-2-yl)acetyl]-D-leucine t-butyl ester] the value was 103 nM; for `CC(C)C[C@@H](NC(=O)C(=O)C1CCCN1C(=O)C(Cc1ccccc1)NC(=O)OCc1ccccc1)C(=O)OC(C)(C)C` (stereo partly drawn) [Example 16, N-Benzyloxycarbonylphenylalanyl-[2-oxo-2-(pyrrolidin-2-yl)acetyl]-D-leucin t-butyl ester], 3.37 nM.
`CC(C)C[C@@H](NC(=O)C(=O)C1CCCN1C(=O)C1CCCN1C(=O)OCc1ccccc1)C(=O)NC(C(=O)OCc1ccccc1)C(C)C` (stereo partly drawn) [Example 20, N-Benzyloxycarbonylprolyl-[2-oxo-2-(pyrrolidin-2-yl)acetyl]-D-leucylvaline benzyl ester] had an IC50 of 3.25 nM.
In turn, `CC(C)C[C@@H](NC(=O)C(=O)C1CCCN1C(=O)C(NC(=O)C(N)C(C)C)C(C)C)C(=O)NC(C(=O)O)C(C)C` (stereo partly drawn) [Example 8, Valylvalyl-[2 oxo 2-(pyrrolidin-2-yl)acetyl]-D-leucylvaline] (H-[ξV][ξV][X1][dL][ξV]-OH) showed an IC50 of 19.9 nM.
On the same count and under the same terms, for `CC(C)C[C@@H](NC(=O)C(=O)C1CCCN1C(=O)C(Cc1ccccc1)NC(=O)OCc1ccccc1)C(=O)O` (stereo partly drawn) [Example 17, N-Benzyloxycarbonylphenylalanyl-[2-oxo-2-(pyrrolidin-2-yl)acetyl)-D-leucine] the value was 2.42 nM.
The compound `CC(C)C[C@@H](NC(=O)C(=O)C1CCCN1C(=O)CC(C)(C)C)C(=O)OC(C)(C)C` (stereo partly drawn) [Example 14, [2-Oxo-2-(N-(3,3-dimethylbutanoyl)pyrrolidin-2-yl)-acetyl]-D-leucine t-butyl ester] gave a concentration for half-maximal inhibition (IC50) of 21.9 nM.
With `CC(C)C[C@@H](NC(=O)C(=O)C1CCCN1C(=O)C(NC(=O)C(NC(=O)OCc1ccccc1)C(C)C)C(C)C)C(=O)NC(C(=O)OCc1ccccc1)C(C)C` (stereo partly drawn) [Example 7, N-Benzyloxycarbonylvalylvalyl-[2-oxo-2-(pyrrolidin-2-yl)acetyl]-D-leucylvaline benzyl ester] (Cbz-[ξV][ξV][X1][dL][ξV]-OBn), the IC50 is 9 nM.

The same test, now with this note: prolyl endopeptidase from porcine kidneys; substrate 0.1 mM; pH 7.5; 37° C.; 30 min; absorbance 525 nm.
With “N-Benzyloxycarbonylphenylalanyl-[2 hydroxy-2-(pyrrolidin-2-yl)acetyl]-D-leucylvaline benzyl ester [Example 9]”, the “IC50 (concentration necessary for 50% inhibition)” value is 2.4 ng/mL.
